Our source for the agonistic activity, IC50 and antagonistic activity values is US7192956B2, “Methods of treating hormone-related conditions using cyclothiocarbamate derivatives” (Wyeth, priority 2002, dated 2007).

The target in test [1] is T1, androgen receptor (AR) (Mus musculus, UniProt P19091).
T1 construct: the L929 cells which express the AR but not the PR; endogenous in cells; host or cells: L929 cells
T1 sequence (P19091 1-899): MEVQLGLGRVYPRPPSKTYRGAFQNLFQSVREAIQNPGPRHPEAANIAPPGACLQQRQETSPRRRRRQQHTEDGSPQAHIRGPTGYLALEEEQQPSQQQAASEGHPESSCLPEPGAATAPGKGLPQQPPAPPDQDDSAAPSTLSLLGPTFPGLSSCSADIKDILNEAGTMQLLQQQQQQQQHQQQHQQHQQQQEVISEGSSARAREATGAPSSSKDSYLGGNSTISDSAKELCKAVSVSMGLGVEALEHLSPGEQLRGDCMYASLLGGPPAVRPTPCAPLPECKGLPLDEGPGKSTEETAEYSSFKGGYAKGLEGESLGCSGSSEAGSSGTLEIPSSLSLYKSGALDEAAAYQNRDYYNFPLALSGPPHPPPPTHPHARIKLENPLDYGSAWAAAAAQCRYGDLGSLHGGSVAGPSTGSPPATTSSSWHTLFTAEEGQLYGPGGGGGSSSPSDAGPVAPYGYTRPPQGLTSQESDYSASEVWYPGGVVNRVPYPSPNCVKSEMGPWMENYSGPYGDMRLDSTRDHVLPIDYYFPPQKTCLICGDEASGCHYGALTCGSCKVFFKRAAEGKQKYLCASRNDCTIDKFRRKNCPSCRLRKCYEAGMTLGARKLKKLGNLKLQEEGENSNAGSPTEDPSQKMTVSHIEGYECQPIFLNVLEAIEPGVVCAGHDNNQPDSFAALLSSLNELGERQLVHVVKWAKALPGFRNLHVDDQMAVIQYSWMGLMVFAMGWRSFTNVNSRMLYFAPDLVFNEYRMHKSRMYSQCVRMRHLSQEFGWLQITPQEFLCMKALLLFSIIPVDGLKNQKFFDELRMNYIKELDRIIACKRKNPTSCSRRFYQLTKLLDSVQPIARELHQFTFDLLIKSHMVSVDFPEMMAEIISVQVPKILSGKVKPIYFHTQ
Briefly: AR agonistic activity, PRE-tk-luciferase reporter in L929 cells. Format: cell-based. Conditions: at the maximum concentration tested (i.e., 10 nM). On the procedure:
(§1) The androgen receptor (AR) agonistic and antagonistic activity of the compositions of the invention in the L929 cells which express the AR but not the PR was evaluated as described in Zhang et al., Steroids, 65(10–11): 637–643 (October–November 2000).
(§2) Cells were plated in 96-well plates at 25,000 cells/well in DMEM (Bio Whittaker) with 10% (v/v) fetal bovine serum (FBS). The next day, cells were infected with the adenovirus PRE-tk-luciferase reporter construct (2×10^9 pfu/ml particles) and kept in DMEM containing 10% charcoal stripped FBS for an additional 24 hours. […] To test the anti-androgenic activity, cells were co-treated with 3 nM DHT. Luciferase activity was measured 24 hours following the treatment.
A general note: A reporter such as luciferase makes a cellular process visible.

For test [2], the target named is T1, androgen receptor (AR). Briefly: Anti-androgenic (AR antagonistic) activity, PRE-tk-luciferase reporter in L929 cells co-treated with DHT. Format: cell-based. Conditions: co-treated with 3 nM DHT. The protocol: as §1, §2

For the compound `Cn1c(C#N)ccc1-c1ccc2c(c1)C(C)(C)OC(=S)N2` [5-(4,4-dimethyl-2-thioxo-1,4-dihydro-2H-3,1-benzoxazin-6-yl)-1-methyl-1H-pyrrole-2-carbonitrile], the agonistic activity result on androgen receptor (AR) [1] is listed as “only marginal agonistic activity”. In addition, the concentration for half-maximal inhibition (IC50) (usually the midpoint of a concentration-inhibition curve) at androgen receptor (AR) [2] (L929 cells expressing AR but not PR, PRE-tk-luciferase reporter, luciferase measured 24 hours after treatment) was 0.109 µM. Moreover, the antagonistic activity entry on androgen receptor (AR) [2] (L929 cells, nine point dose response) is recorded as “significant antagonistic activity”.
